Two compounds from article PMC7179673, “A New Series of Carlactonoic Acid Based Strigolactone Analogs for Fundamental and Applied Research” (Frontiers in Plant Science, 2020) can be followed below.

Where two headings read alike, the source gives them in different places.

As a reminder, the IC50 is the concentration needed to halve the response being measured.

One test has as its target T1, OsD14 (Oryza sativa, UniProt Q10QA5).
T1 construct: gene D14
T1 sequence (Q10QA5 1-318): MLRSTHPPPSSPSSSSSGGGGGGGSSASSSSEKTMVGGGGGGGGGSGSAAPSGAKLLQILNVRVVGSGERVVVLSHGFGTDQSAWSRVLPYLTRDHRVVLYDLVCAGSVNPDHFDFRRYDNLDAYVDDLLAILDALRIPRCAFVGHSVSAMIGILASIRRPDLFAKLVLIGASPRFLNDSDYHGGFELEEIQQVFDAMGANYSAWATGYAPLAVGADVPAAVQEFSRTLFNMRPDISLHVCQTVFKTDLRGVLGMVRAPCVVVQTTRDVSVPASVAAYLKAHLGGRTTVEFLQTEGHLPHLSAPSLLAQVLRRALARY
The experiment in a line: competitive YLG (Yoshimulactone Green) hydrolysis assay with purified protein. It counts as biochemical.

For test [1], the target named is T2, ShHTL7 (Striga hermonthica Hyposensitive to Light) (Striga hermonthica, UniProt A0A0M3PNA2).
T2 sequence (A0A0M3PNA2 1-271): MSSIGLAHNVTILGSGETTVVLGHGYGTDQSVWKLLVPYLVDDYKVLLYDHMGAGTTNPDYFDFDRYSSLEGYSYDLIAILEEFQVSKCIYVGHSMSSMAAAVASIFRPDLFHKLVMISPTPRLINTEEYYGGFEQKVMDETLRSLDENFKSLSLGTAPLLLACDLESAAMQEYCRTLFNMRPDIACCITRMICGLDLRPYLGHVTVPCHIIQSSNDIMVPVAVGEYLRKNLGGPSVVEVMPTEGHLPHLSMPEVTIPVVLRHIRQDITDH
Described as above. It counts as biochemical.

Turning to `CC1=C[C@H](O/C=C2/C(=O)O[C@@H]3c4ccccc4C[C@H]23)OC1=O` (racemic) [GR24, rac-GR24], the IC50 on OsD14 amounted to 1040 ± 90 nM; in test [1], 980 ± 260 nM.

Take `CC1=CC(O/C=C(\C(=O)N(C)C)c2ccccc2)OC1=O` (stereo not drawn) [MP16, (Z)-N,N-Dimethyl-3-((4-methyl-5-oxo-2,5-dihydrofuran-2-yl)oxy)-2-phenylacrylamide]: the IC50 in test [1] (read-out: IC50) is 4370 ± 210 nM.
